# Tested on: Store-bought Strawberries
# Assay: Strawberry shelf-life / spoilage test after ascaroside treatment
# Details: berries dipped into 100 nM water solution
# Procedure: Example 1: treatment of fruit with ascarosides extends shelf-life/delays spoilage. Store-bought Strawberries were treated with ascaroside (ascr #18) by dipping the berries into a 100 nM water solution of the ascaroside or a mock solution lacking ascaroside. Five berries from each treatment group were placed in glass dishes and left uncovered on a table indoors at ambient temperature and monitored for one week. Fruit weight was measured at 0, 1, 3, 4, 5, 6, and 7 days post-treatment. The ascaroside treated berries retained approximately 25% more of their original mass than the untreated group indicating a reduced spoilage rate and potential for increased shelf life. […] Example 2: treatment of fruit with coating compositions containing ascarosides. Freshly harvested, non-coated, apples were obtained from a supermarket. These were washed and experimental coatings were applied.
smiles,measurement,setting,value
CC1OC(O[C@H](C)CCCCCCCCC(=O)O)C(O)CC1O (some centres unmarked) [ascr #18],"fruit quality by appearance (photographs, FIG. 1b)","photographs 0, 3 and 5 days post-treatment, vs untreated fruit",maintained higher quality than the untreated fruit
same,"original mass retained, more than the untreated group (normalized fruit mass, FIG. 1a)","uncovered at ambient temperature, monitored for seven days, vs mock solution",approximately 25%

# Source: patent publication US20260144266A1, “METHODS OF TREATING PLANT-BASED PRODUCTS TO REDUCE MICROBE PROLIFERATION AND EXTEND SHELF LIFE” (Ascribe Bioscience Inc., priority 2022, published 2026)
